This note sets out measurements from US8883227B2, “Plant pathogen inhibitor combinations and methods of use” (priority 2009, dated 2014).

Each structure is given as a SMILES string.

Common to all, as to type: in vivo
In experiment [1] the test system is Sphaerotheca fuliginea. Description: Greenhouse cucumber powdery mildew test, foliar spray alone or in tank mix. As for the experimental part:
The studies were conducted in a green house. Experimental design of the studies for synergism followed the Burpee and Latin (2008). Powdery mildew, caused by Sphaerotheca fuliginea, was used for investigating the efficacy of the treatments.
Cucumber seeds cv. “SMR 58” (Irwin & Sons Ag Supply, Inc. Cheshire, Oreg.) were grown in plastic 4-inch pots with potting soil mix (Rod McLellan Company, Marysville, Ohio). The plants were treated at 2-true leaf stage. The compounds at various rates were sprayed with a 2-oz mist sprayer at 2 ml per plant at upper side and 1 ml at lower side of the leaves. The treated plants were left for 3-4 hours under florescent light to dry before inoculation.
A conidia suspension of Sphaerotheca fuliginea, the causal agent of powdery mildew disease on cucumber, was prepared by cutting diseases leaves of the cucumber plants that are served for conservation of inoculum. The suspension were adjusted to 2.0×10^5 conidia per ml and applied with a 2-oz mist sprayer at 2 ml per plant on the upper side of the leaves. The inoculated plants were placed in a greenhouse and the treatments were arranged in randomized complete blocks with 4 to 6 replicates at 25° C. to 30° C.
The disease severity (percentage area covered with colonies) of the first leaves were rated according to James (1971). Disease severity and percentage control were analyzed with analysis of variance (ANOVA) and means of the treatments were compared with Fisher's Protected Least Difference (LSD) at p=0.05 level. Synergetic effect was calculated and analyzed with Limpel's formula (Limpel et al., 1962; Richer, 1987).

Experiment [2] has as its system Rhizoctonia solani. Briefly: Soybean seed treatment (seed coating) in infested soil, damping off. The note with it: inoculated. As for the experimental part:
The experiments described below were conducted with soybean but similar procedures are used with other crops such as cereals, corn, cotton, and potatoes.
The experiments were conducted in a greenhouse following the procedure developed by Hwang et al. (2006). The isolate of Rhizoctonia solani was grown on potato dextrose agar plates and cultured for 5 days for inoculating oat or wheat grain. One liter of grain was soaked overnight at room temperature (25° C.) and rinsed three times with tape water. The 8×12-in autoclave bags were filled with the grain up to ⅓ full were autoclaved at 121° C. for 15 min. The autoclaved grain then was then inoculated with 5 pieces of 1×1 cm plug of the 5-day culture of R. solani per bag and cultured for 5 days at room temperature (25° C.). The bags were left open in laminar flow hood to let the grain completely dry.
The blank seed sample of 10 g to be coated was placed in a flask. Coating agent SEPIRET® 1171-O (Becker Underwood Ltd., Ames, Iowa) was put into the flasks together with the compound of interest, and the flask was shaken vigorously so that the seed picked up the compound. The procedure was repeated with fresh seed sample of cvs. “White Lion” (Kitazawa Seed Co., Oakland, Calif.) or “Viking 2265” (Johnny's Selected Seeds, Winslow, Me.) in the same flask for the treatments. After the seeds were coated, they were left to air dry before planting.
To prepare the soil, five hundred milliliters of the dried grains with inoculum were blended for 15 seconds three times and the powder was mixed with sterile sand at 1:1 (v/v) to dilute the inoculum. The sand mix was further used to prepare soil mix at various proportions 1:350 to 1:800 (inoculum:soil) for soybean to generate various disease levels in repeated tests.
The coated seeds were planted in the pots with infested soil. There were three replicates of each treatment which were arranged in a complete randomized block design and placed at 25 to 30° C. in a greenhouse.
After 10 to 20 days, depending on disease pressure and temperature, emergence of each treatment was rated and compared. Biomass was measured by weighing the above-ground portion which was measured for each replicate of the plant material.

Experiment [3] deals with Bremia lactucae. Briefly: Lettuce downy mildew test on cotyledons. As for the experimental part: Synergy between MBI-106 and acibenzolar-S-methyl or mefenoxam which control a specific class of pathogens Oomycetes was tested with lettuce downy mildew following Su et al. (2004).
To prepare inoculum of downy mildew, lettuce seeds were placed on […] petri-dishes with about 20-30 seeds in each and watered with sterile water, then supplied with ½ strength of Hoagland's solution after germination. The petri dishes were placed at 20° C. growth chamber for 7-10 days. The spores of Bremia lactucae was inoculated on lettuce cotyledons and cultured for 7-10 days at 15° C. for sporulation to occur. Cotyledons with sporulation were cut off and placed in a falcon tube with sterile water. The cotyledons were vortexed for 15 seconds three times and filtered through a 100-uμm mesh to collect sporangia. The solution was adjusted to 0.5 to 1.0×10^5 spores/ml for inoculation.
Four test plants were seeded in each 2-in pots and then placed at 20° C. for 7-10 days to grow cotyledons. Plants were ready for test when the first true leaf was emerging.
The lettuce plants were treated with the materials and left to dry or overnight. Then the plants were inoculated with sporangial solution. The treatments were arranged in a randomized complete block design with four replicates. The inoculated plants were placed in darkness in growth chamber for 48 hours and then incubated under 12-h light period at 15° C. Eight to ten days after inoculation, the cotyledons were rated for disease severity (percentage area covered with sporangiophores).

Where [4] appears, read: Example X, propiconazole 1.0 ug/ml alone.
Where [5] appears, read: Example V, triflumizole 0.25 ug/ml alone.
Setting [6] is: Example V, triflumizole 0.5 ug/ml alone.
Where [7] appears, read: Example V, triflumizole 1.0 ug/ml alone.
The mark [8] stands for this setting: Example III, quinoxyfen 0.01 ug/ml alone.
The mark [9] stands for this setting: Example III, quinoxyfen 0.05 ug/ml alone.
[10] abbreviates: Example IX, fludioxonil 0.0596 g ai/kg alone.
The mark [11] stands for this setting: Example VII, mefenoxam 37.5 ug/ml alone.
[12] abbreviates: Example VII, mefenoxam 75 ug/ml alone.
Setting [13] is: Example VII, mefenoxam 150 ug/ml alone.
Setting [14] is: Example I, myclobutanil 0.05 ug/ml alone.
The mark [15] stands for this setting: Example I, myclobutanil 0.1 ug/ml alone.
Setting [16] is: Example I, myclobutanil 0.25 ug/ml alone.
The mark [17] stands for this setting: Example II (repeated test), myclobutanil 0.05 ug/ml alone.
Setting [18] is: Example II (repeated test), myclobutanil 0.1 ug/ml alone.
The mark [19] stands for this setting: Example II (repeated test), myclobutanil 0.25 ug/ml alone.
The mark [20] stands for this setting: Example VI, acibenzolar-S-methyl 25 ug/ml alone.
Setting [21] is: Example VIII, azoxystrobin 0.0298 g/kg alone.
The mark [22] stands for this setting: Example IV, azoxystrobin 0.25 ug/ml alone.
[23] abbreviates: Example IV, azoxystrobin 0.5 ug/ml alone.
The mark [24] stands for this setting: Example IV, azoxystrobin 1.0 ug/ml alone.
The mark [25] stands for this setting: Example IV, azoxystrobin 5.0 ug/ml alone.
The mark [26] stands for this setting: Example IV, azoxystrobin 10.0 ug/ml alone.
[27] abbreviates: Example XI (Test II), azoxystrobin 0.1 ug/ml alone.
Where [28] appears, read: Example XI (Test II), azoxystrobin 0.25 ug/ml alone.
Setting [29] is: Example XI (Test II), azoxystrobin 0.5 ug/ml alone.

Take `CCCC1COC(Cn2cncn2)(c2ccc(Cl)cc2Cl)O1` (centres unmarked) [propiconazole]: in experiment [1] (setting [4]), the “Control (%)” value was found to be 1.3% and the “Severity (%)” value was found to be 97.5%.

Consider `CCCOC/C(=N\c1ccc(Cl)cc1C(F)(F)F)n1ccnc1` [triflumizole], for which the “Control (%)” value in experiment [1] (setting [5]) worked out at 2.6%; in experiment [1] (setting [6]), 11.5%; in experiment [1] (setting [7]), 20.5%. The “Severity (%)” value in experiment [1] (setting [5]) stood at 95.0%; in experiment [1] (setting [6]), 86.3%; in experiment [1] (setting [7]) it was 77.5%.

Turning to `Fc1ccc(Oc2ccnc3cc(Cl)cc(Cl)c23)cc1` [quinoxyfen, 5,7-dichloro-4-quinolyl 4-fluorophenyl ether], in experiment [1] (setting [8]), the “Control (%)” value was found to be 1.33% and the “Severity (%)” value is given as 90.0%. Also, in experiment [1] (setting [9]), the “Control (%)” value came to 66.95% and the “Severity (%)” value is reported as 30.0%.

As to `N#Cc1c[nH]cc1-c1cccc2c1OC(F)(F)O2` [fludioxonil], in experiment [2] (setting [10]), the “Bio mass” value turned out to be 8.7 g, the “Control (%)” value was 28.4% and the “Emergence (%)” value was determined as 35.8%.

As to `COCC(=O)N(c1c(C)cccc1C)[C@H](C)C(=O)OC` [mefenoxam], the “Control (%)” value in experiment [3] (setting [11]) is recorded as −2.6%; in experiment [3] (setting [12]), 37.7%; in experiment [3] (setting [13]), 48.5%. In addition, the “Severity (%)” value in experiment [3] (setting [11]) worked out at 89.3%; in experiment [3] (setting [12]) it was 54.2%; in experiment [3] (setting [13]) it was 44.8%.

Turning to `CCCCC(C#N)(Cn1cncn1)c1ccc(Cl)cc1` (centres unmarked) [myclobutanil], the “Control (%)” value is 2.5% in experiment [1] (setting [14]); 3.2% in experiment [1] (setting [15]); 83.1% in experiment [1] (setting [16]); −2.8% in experiment [1] (setting [17]); 12.2% in experiment [1] (setting [18]); 41.3% in experiment [1] (setting [19]). The “Severity (%)” value in experiment [1] (setting [14]) came out at 95.8%; in experiment [1] (setting [15]), 95.0%; in experiment [1] (setting [16]) it was 16.7%; in experiment [1] (setting [17]), 93.8%; in experiment [1] (setting [18]), 80.0%; in experiment [1] (setting [19]) it was 53.8%.

As to `CSC(=O)c1cccc2nnsc12` [acibenzolar-S-methyl], in experiment [3] (setting [20]), the “Control (%)” value is listed as 23.4% and the “Severity (%)” value worked out at 68.9%.

As to `CO/C=C(/C(=O)OC)c1ccccc1Oc1cc(Oc2ccccc2C#N)ncn1` [azoxystrobin], the “Control (%)” value in experiment [2] (setting [21]) came out at 81.5%; in experiment [1] (setting [22]), 51.8%; in experiment [1] (setting [23]), 48.0%; in experiment [1] (setting [24]) it was 68.1%; in experiment [1] (setting [25]), 94.3%; in experiment [1] (setting [26]) it was 87.6%. Moreover, the “Control (%)” value in experiment [1] (setting [27]) is on record as 21.6%; in experiment [1] (setting [28]), 13.5%; in experiment [1] (setting [29]) it was 62.2%. Besides, the “Emergence (%)” value in experiment [2] (setting [21]) is 86.4%. In addition, the “Severity (%)” value in experiment [1] (setting [22]) was 45.0%; in experiment [1] (setting [23]) it was 48.8%; in experiment [1] (setting [24]) it was 30.0%; in experiment [1] (setting [25]), 5.3%; in experiment [1] (setting [26]) it was 11.3%; in experiment [1] (setting [27]), 72.5%. The Severity (%) in experiment [1] (setting [28]) was found to be 80.0%; in experiment [1] (setting [29]), 35.0%.
